Laboratory results from US11998513B2, “Two-part nitric oxide generating topical compositions” (THE REGENTS OF THE UNIVERSITY OF MICHIGAN, priority 2018, dated 2024).

How the values were obtained:
Assay type in all cases: physicochemical
[1] = Storage stability of SNAP in VASELINE® (UV-Vis % Recovery); conditions: room temperature
Method: The stability of 5 wt % and 10 wt % SNAP in petroleum jelly was tested. The petroleum jelly used was VASELINE®.
Mixtures of 5 wt % SNAP powder or 10 wt % SNAP powder in VASELINE® were mixed until homogeneity was achieved. Each homogeneous mixture was spread out on a weigh boat and dried under vacuum and desiccant for 24 hours. Afterwards, individual samples were weighed out into individual amber glass vials. Each sample's mass was recorded to obtain the theoretical amount of SNAP in each sample. Septum caps were used to allow purging of each sample with nitrogen gas for storage. All caps were then wrapped in parafilm, and then each vial was wrapped in aluminum foil to ensure that the samples are not exposed to light. All samples were stored in the dark at room temperature (˜25° C. in this example).
To quantify the amount of SNAP in each VASELINE® sample, UV-Vis was used. After recording the absorption of a sample, Beer's law (A=εbc, where A=absorption, ε=922 M^−1 cm^−1, b=1 cm, and c=concentration) was used to calculate the concentration of SNAP. These measurements were made at different times over several months.
When a stored SNAP/VASELINE® sample was going to be analyzed, it was opened and 40 mg of the sample was retrieved. […] The SNAP solution was diluted 1:10 twice, and used to obtain UV-Vis absorbance values between 0.2 and 2 AU (absorbance units) at […]. […]

[2] = NO release from 1 mM GSNO bulk solution after addition of metal ions (chemiluminescence analyzer); conditions: 100 μL of 1 mM salt into 2 mL of 1 mM GSNO, 10 mM Tris-HCl pH 7.4, dark, 24° C.
Method: Another experiment was performed to determine whether zinc ions can increase NO proliferation from GSNO in the dark at 24° C. NO release was measured using a nitric oxide (chemiluminescence) analyzer. Throughout the analysis, each solution was bubbled with N2 gas at a rate of 50 mL/min. Any generated NO was carried into the analyzer by a N2 sweep gas. All of the solutions were made with 10 mM Tris-HCl buffer (pH 7.4). A bulk solution was prepared including 1 mM GSNO in the buffer. 2 mL of this bulk solution were added to a sample cell and the analyzer was allowed to equilibrate for 1 minute. At t=1 minute, 100 μL of 1 mM zinc chloride (ZnCl2) was added to the bulk solution. […] For the control, 100 μL of the buffer (10 mM Tris-HCl, pH 7.4) was added into the bulk solution at t=1 minute. The same insignificant burst was observed. For each scenario, at t=10.5 minutes, 100 μL of 1 mM CuCl2 was added to the bulk as a positive control.

[3] = Storage stability of GSNO in VASELINE® (UV-Vis % Recovery); conditions: room temperature (18° C. to about 25° C.)
Method: The stability of 10 wt % GSNO in petroleum jelly was tested. The petroleum jelly used was VASELINE®.
A mixture 10 wt % GSNO in VASELINE® was mixed until homogeneity was achieved. The homogeneous mixture was spread out on a weigh boat and dried under vacuum and desiccant for 24 hours. Afterwards, individual samples were weighed out into individual amber glass vials. Each sample's mass, ranging from 15-40 mg per sample, was recorded to obtain the theoretical amount of GSNO in each sample. Septum caps were used to allow purging of each sample with nitrogen gas for storage. Each sample was purged under nitrogen gas for 5 hours. […]
To quantify the amount of GSNO in each VASELINE® sample, ultraviolet-visible spectroscopy (UV-Vis) was used. […]
When a stored GSNO/VASELINE® sample was going to be analyzed, it was opened, subjected to 5 mL of xylene, vortexed for 30 seconds, and stirred for 10 minutes. […] An aliquot of the aqueous layer was taken and the absorbance spectrum was captured from 200-600 nm using UV-Vis to quantitate the level of GSNO present in the GSNO/VASELINE® sample. […]
UV-Vis spectroscopy was used to determine the stability of GSNO in VASELINE®. […] After sample prep, the aliquot of the aqueous layer was taken in an appropriate volume so that the absorbance measured would be <1 at 334 nm. The sample was further diluted if necessary to achieve an absorbance of <1. […]

## CC(=O)N[C@@H](C(=O)O)C(C)(C)SN=O (racemic) [SNAP, S-nitroso-n-acetylpenicillamine]
[1]; higher amounts of SNAP (10 wt % SNAP)
  period for which petroleum jelly is a stable carrier: at least 2 months
[1]; lower amounts of SNAP (5 wt % SNAP)
  period for which petroleum jelly is a stable carrier: at least 6 months

## [Cl][Cu][Cl] [CuCl2]
[2]
  NO release on addition to GSNO bulk solution (in words): large burst in NO release

## N[C@@H](CCC(=O)N[C@@H](CSN=O)C(=O)NCC(=O)O)C(=O)O [GSNO, S-nitrosoglutathione]
[3]
  period for which petroleum jelly is a stable carrier: at least 300 days

## [Cl-].[Cl-].[Zn+2] [ZnCl2, zinc chloride]
[2]
  NO release on addition to GSNO bulk solution (in words): small, insignificant burst of NO
